Experiments:
[1] = cited from earlier work
human HERG K+ channel [2] = molecular target: T1, human HERG K+ channel (Homo sapiens, UniProt Q12809)
Experimental: (§1) Adherent HEK293 cells expressing human HERG, were grown in MEM Earles medium (Life Technologies) supplemented with 10% foetal calf serum (PAA Laboratories), 2 mM L-glutamine (Sigma), 1 mM sodium pyruvate (Sigma), 0.4 mg/ml G418 (Life Technologies) and an addition of 1× non-essential amino acids (Life Technologies). The cells were grown at 37° C. in a humidified atmosphere with 5% CO2 in T225 cm^3 flasks.
(§2) All cells were pelleted, washed twice with PBS and snap-frozen on dry ice prior to storage at −80° C. until required.
(§3) Cell membrane fractions were prepared from frozen aliquots of cells. All procedures were carried out at 4° C. unless otherwise stated. Frozen aliquots of cells were thawed at room temperature and resuspended in homogenisation buffer (50 mM Tris base, 10 mM KCl, 1-1.2 mM MgCl2, pH 7.4). The cells were then disrupted by homogenisation in an Omni LabTek homogeniser at 20,000 rpm for 30 seconds. The homogenate was centrifuged for 20 minutes at 48,000×g (4° C., Sorvall RC5B centrifuge) and the supernatant removed. […] Protein content was determined using a Coomassie Blue based protein assay kit. […]
The scintillation proximity assay (SPA) was carried out under identical buffer conditions to those used in the filtration assay. […] Beads were allowed to settle for a minimum of 30 minutes before plates were counted for retained radioactivity on a TopCount NTX scintillation counter.

human HERG K+ channel [3] = molecular target: T1, human HERG K+ channel; remark: listed apart in the source
Experimental: as §1, §2, §3
In each experiment, triplicate assays were routinely performed and the data were averaged. Specific binding was analysed by nonliiear regression fit using GraphPad Prism software (GraphPad, San Diego). […]

T1 sequence (Q12809 whole entry): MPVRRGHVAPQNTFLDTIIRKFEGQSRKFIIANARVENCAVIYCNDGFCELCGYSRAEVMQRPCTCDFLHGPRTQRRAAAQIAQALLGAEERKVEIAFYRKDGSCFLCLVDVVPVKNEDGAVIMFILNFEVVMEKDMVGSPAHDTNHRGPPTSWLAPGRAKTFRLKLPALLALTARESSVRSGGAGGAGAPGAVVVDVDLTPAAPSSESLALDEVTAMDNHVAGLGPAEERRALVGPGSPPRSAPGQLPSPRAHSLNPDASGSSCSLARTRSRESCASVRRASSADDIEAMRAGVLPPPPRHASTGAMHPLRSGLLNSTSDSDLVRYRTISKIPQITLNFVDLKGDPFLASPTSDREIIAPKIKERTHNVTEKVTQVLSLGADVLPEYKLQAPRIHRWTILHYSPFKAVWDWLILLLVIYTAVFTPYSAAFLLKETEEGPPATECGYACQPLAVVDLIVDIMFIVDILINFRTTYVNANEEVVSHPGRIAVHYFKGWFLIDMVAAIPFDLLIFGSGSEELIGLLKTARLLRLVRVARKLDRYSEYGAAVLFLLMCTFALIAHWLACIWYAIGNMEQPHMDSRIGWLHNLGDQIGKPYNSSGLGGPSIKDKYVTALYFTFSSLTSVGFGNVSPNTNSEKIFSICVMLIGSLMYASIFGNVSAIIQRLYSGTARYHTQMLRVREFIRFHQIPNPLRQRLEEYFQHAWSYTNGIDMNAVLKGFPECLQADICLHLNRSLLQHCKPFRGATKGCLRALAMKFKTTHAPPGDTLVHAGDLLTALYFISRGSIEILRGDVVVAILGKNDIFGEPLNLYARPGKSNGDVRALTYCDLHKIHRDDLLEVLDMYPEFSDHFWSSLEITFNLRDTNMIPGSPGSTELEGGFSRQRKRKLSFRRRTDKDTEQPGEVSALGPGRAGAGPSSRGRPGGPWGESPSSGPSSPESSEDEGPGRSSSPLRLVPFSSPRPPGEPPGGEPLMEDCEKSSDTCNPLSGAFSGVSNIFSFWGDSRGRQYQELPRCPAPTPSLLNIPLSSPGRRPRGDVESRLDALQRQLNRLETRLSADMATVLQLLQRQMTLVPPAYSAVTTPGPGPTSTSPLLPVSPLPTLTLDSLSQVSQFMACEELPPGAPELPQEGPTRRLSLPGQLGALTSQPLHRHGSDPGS

## COc1cc(N)c(Cl)cc1C(=O)NC1CCN(CCCOc2ccc(F)cc2)CC1OC (stereo not shown) [Cisapride]
[1]
  effect on QT interval of the electrocardiogram in man: prolong the QT interval

## CC(C)NC[C@@H](O)c1ccc(NS(C)(=O)=O)cc1 [D-Sotalol]
Human HERG K+ channel [2]
  SPA 96 pKi: <5
  SPA 384 pKi: <5
Human HERG K+ channel [3]
  Filter binding pKi: <5
